Data on three molecules can be found in patent US20230150929A1, “SELECTIVE NON-CYCLIC NUCLEOTIDE ACTIVATORS FOR THE CAMP SENSOR EPAC1” (The Board of Regents of The University of Texas System, priority 2020, published 2023).

One test addresses T1, EPAC1-CNBD (Homo sapiens, UniProt O95398).
T1 sequence (O95398 169-318 isoform O95398-3): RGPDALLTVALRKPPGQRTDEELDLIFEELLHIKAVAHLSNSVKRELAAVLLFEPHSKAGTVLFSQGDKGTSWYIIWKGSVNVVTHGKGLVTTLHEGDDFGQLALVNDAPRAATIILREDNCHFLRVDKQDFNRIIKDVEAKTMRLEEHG
The experiment in a line: 8-NBD-cAMP competition binding assay, EPAC1-CNBD. The settings on record: for EPAC1 binding potency / affinity in words: SAR comment on RFI, mostly relative to 3 or 9a; for RFI (%) (relative fluorescence intensity), Table 4: compound 10 µM, EPAC1-CNBD 0.8 µM, 8-NBD-cAMP 62.5 nM, mean ± SEM, lower RFI = stronger binding; for IC50: read-out: IC50 for the EPAC1-CNBD, dose-response, FIG. 3; for IC50 values as EPAC1 binders (in words): summary statement.

A further test concerns the target T2, EPAC1 (Homo sapiens, UniProt O95398).
T2 sequence (O95398 1-923): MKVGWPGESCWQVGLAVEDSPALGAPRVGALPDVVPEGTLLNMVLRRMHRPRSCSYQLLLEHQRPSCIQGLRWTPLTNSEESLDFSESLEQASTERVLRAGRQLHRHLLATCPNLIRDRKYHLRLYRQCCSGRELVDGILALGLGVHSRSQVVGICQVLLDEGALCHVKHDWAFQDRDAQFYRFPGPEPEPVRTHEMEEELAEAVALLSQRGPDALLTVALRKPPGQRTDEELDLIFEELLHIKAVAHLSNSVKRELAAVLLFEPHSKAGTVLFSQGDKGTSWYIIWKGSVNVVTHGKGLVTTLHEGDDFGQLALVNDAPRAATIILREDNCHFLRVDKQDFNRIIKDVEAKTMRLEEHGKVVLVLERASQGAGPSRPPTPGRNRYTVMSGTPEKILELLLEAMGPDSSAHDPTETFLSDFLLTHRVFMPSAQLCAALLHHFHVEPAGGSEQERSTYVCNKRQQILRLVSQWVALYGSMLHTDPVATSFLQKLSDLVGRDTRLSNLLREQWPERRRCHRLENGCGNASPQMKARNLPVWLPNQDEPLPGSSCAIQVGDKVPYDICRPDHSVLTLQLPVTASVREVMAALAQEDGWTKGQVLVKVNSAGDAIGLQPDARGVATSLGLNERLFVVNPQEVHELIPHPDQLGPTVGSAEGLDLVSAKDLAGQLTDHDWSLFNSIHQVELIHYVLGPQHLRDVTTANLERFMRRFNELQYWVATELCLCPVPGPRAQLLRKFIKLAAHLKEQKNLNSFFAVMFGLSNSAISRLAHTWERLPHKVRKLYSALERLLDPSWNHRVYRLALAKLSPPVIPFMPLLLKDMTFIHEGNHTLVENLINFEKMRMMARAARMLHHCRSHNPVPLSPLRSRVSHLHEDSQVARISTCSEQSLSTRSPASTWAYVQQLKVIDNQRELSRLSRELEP
As to the kind of experiment: Active Rap1 pull-down in U2OS cells stably transfected with EPAC1. On the set-up: expressed in transfected cells; host or cells: U2OS cells (from Professor Holger Rehmann, University of Utrecht). The settings on record: for Rap1 activation in EPAC1 cells: U2OS-EPAC1, 100 µM compound, 10 min, FIG. 7; for activation of EPAC1 by compound 2 (Rap1-GTP levels): U2OS-EPAC1 cells, in the presence of EPAC1 agonist 2 (007), FIG. 4. The format is cell-based. The method, then:
Series Expansion and EPAC1 vs EPAC2 Selectivity. GEF assay was used to further screen all newly synthesis analogues at 10 µM, to identify additional activating compounds to expand the series of EPAC1 agonists (FIG. 6). […] Having now identified an expanded exemplary series of compounds as potential EPAC1 activators the ability of 25e, 25f, 25g, 25n and 25u to activate EPAC1 and EPAC2 in cellular Rap1 activation assays (FIG. 7) were compared. For these U2OS cells transfected with either EPAC1 or EPAC2 (FIG. 7) was used. […] Densitometry was carried out on all immunoblots and the ratio of EPAC1 to EPAC2 activation was calculated and presented in a bar graph in FIG. 8.
Active Rap1 Pull-down. U2OS cells (from Professor Holger Rehmann, University of Utrecht) stably transfected with EPAC1 or EPAC2 were cultured in 6-well plates in DMEM, high glucose, supplemented with 10% (v/v) FBS, 1% (v/v) GlutaMAX, 1% (v/v) Penicillin-Streptomycin and 2 mg/l puromycin (to ensure selection of stable transfectants). 80% confluent cells were starved in culture medium with reduced FBS concentration (0.5 %) for 16 h and then stimulated for 10 min with either vehicle, 100 µM of studied compounds, or 50 µM of 2 in case of U2OS-EPAC1 or 100 µM of compound 4 for U2OS-EPAC2. Cells were then rinsed with ice-cold PBS and lysed in 0.5 ml cell lysis buffer (Cell Signaling Technologies) supplemented with 10 mM MgCl2 and 1 mM PMSF, followed by clearing the lysates by centrifugation. Cell lysates were incubated for 1 h (4° C., gentle agitation) with 40 µg GST-RalGDS-RBD immobilized on Glutathione Sepharose 4B (GE Healthcare) to selectively capture GTP-bound Rap1. Later on, the glutathione resin was separated from supernatant by centrifugation, washed three times with cell lysis buffer, then resuspended in 2x SDS sample loading buffer and denatured for 5 min at 95° C.
SDS-PAGE and Western Blotting. Samples were prepared by mixing equal volumes of cell lysate and 2x SDS sample loading buffer and denaturing for 5 min at 95° C., unless indicated otherwise. Protein samples were separated by SDS-PAGE on 10% (v/v) polyacrylamide gels, for EPAC1 and VASP, or on 12.5% (v/v), for Rap1, and then transferred to nitrocellulose membranes. Membranes were then blocked for 1 h at room temperature in 5% (w/v) non-fat dry milk or 5% (w/v) BSA in Tris-buffered saline containing 0.1% (v/v) Tween 20, followed by an overnight incubation with primary antibody diluted in blocking buffer at 4° C. Subsequently, the membranes were incubated with appropriate horseradish peroxidase-conjugated secondary antibodies for 1 h at room temperature. For signal detection the SuperSignal West Pico PLUS Chemiluminescent Substrate (Thermo Scientific) was used. Images were acquired using the Fusion FX7 camera platform (Vilber). Densitometry was performed with ImageJ.

In the case of `COc1ccc(S(=O)(=O)NC(=O)COc2ccc3ccccc3c2)c(OC)c1` [Compound 25g, N-((2,4-Dimethoxyphenyl)sulfonyl)-2-(naphthalen-2-yloxy)acetamide], at EPAC1-CNBD, the “EPAC1 binding potency / affinity in words” value is on record as “much more potent”; the “RFI (%) (relative fluorescence intensity), Table 4” value is given as 23 ± 4%; the IC50 was 4800 nM; the “IC50 values as EPAC1 binders (in words)” value is on record as “low micromolar to sub-micromolar”. Besides, at EPAC1, the “Rap1 activation in EPAC1 cells” value is recorded as “activate EPAC1 in cells” and the “activation of EPAC1 by compound 2 (Rap1-GTP levels)” value is recorded as “enhanced”.

On to `COc1ccc2ccc(OCC(=O)NS(=O)(=O)c3ccc(N)cc3OC)cc2c1` [Compound 25n, N-((4-Amino-2-methoxyphenyl)sulfonyl)-2-((7-methoxynaphthalen-2-yl)oxy)acetamide], for which, at EPAC1-CNBD, the “RFI (%) (relative fluorescence intensity), Table 4” value amounted to 7 ± 1%; the half-inhibitory concentration (IC50) amounted to 900 nM; the “IC50 values as EPAC1 binders (in words)” value was “low micromolar to sub-micromolar”. For the same molecule, at EPAC1, the “Rap1 activation in EPAC1 cells” value is “activate EPAC1 in cells” and the “activation of EPAC1 by compound 2 (Rap1-GTP levels)” value is on record as “enhanced”.

Regarding `COc1ccc2ccc(OCC(=O)NS(=O)(=O)c3ccc4ccccc4c3)cc2c1` [Compound 25q, 2-((7-Methoxynaphthalen-2-yl)oxy)-N-(naphthalen-2-ylsulfonyl)acetamide], at EPAC1-CNBD, the “EPAC1 binding potency / affinity in words” value is recorded as “significantly enhanced binding potency”; the “RFI (%) (relative fluorescence intensity), Table 4” value came to 14 ± 3%; the IC50 is 2200 nM; the “IC50 values as EPAC1 binders (in words)” value is recorded as “low micromolar to sub-micromolar”. Further, the “Rap1 activation in EPAC1 cells” value on EPAC1 is reported as “activate EPAC1 in cells”.
